# Measurements taken from patent US7452997B2 (priority 2004, dated 2008).
# Like-named read-outs stand apart in the source and are kept apart here.
# Legend:
# human CB1 receptor [1] = biological target: T1, human CB1 receptor (Homo sapiens, UniProt P21554); assay: biochemical; format: binding
# T1 construct: expressed in transfected cells; host or cells: SK-N-MC cells, stably transfected with pcDNA3 CB-1 (human); semi-purified membrane pellet
# Outline: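 Radioligand binding was run at 30° C for 90 minutes, pH 7.5 Tris buffer containing 0.5 mg/mL fatty acid free BSA, on semi-purified membranes of stably transfected SK-N-MC cells. Filter-bound radioactivity was scintillation counted, with IC50 obtained by linear regression across compound concentrations.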
# human CB2 receptor [2] = biological target: T2, human CB2 receptor (Homo sapiens, UniProt P34972); assay: Binding assay, cannabinoid CB2 receptor ([3H]-CP-55,940 displacement); settings: SK-N-MC cell membranes, radioligand CP-55,940 0.2 nM
# T2 sequence (P34972 whole entry): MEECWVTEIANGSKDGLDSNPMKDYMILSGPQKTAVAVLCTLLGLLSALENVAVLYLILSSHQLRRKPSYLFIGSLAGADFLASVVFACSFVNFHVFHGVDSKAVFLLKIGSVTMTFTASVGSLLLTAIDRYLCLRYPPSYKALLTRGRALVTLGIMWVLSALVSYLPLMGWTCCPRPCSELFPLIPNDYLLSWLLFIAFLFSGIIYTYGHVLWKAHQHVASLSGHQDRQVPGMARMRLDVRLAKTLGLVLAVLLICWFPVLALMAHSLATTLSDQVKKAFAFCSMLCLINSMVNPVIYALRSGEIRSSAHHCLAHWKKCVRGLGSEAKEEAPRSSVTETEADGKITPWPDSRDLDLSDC
# Outline: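 Displacement of [3H]-CP-55,940 (0.2 nM) was measured over 90 min at 30 °C (pH 7.5 Tris/MgCl2/EDTA buffer with BSA), using semi-purified membranes of human CB2-transfected SK-N-MC cells. Bound counts collected on GF/C filters, 10 uM WIN 55,212 as nonspecific control; IC50 from varied concentrations.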
# human CB1 receptor [3] = biological target: T1, human CB1 receptor; assay: Functional cell-based assay, CB1 receptor mediated change in CRE β-gal expression (agonist / inverse agonist)
# Source text: (§1) Functional Cell-Based Assay for CB1 or CB2 Agonist and Inverse Agonist Effects on Intra-Cellular Adenylate Cyclase Activity
# (§2) The CB1 and CB2 receptors are G-protein coupled receptors (GPCR) which influence cell function via the Gi-protein. These receptors modulate the activity of intracellular adenylate cyclase which in turn produces the intracellular signal messenger cyclic-AMP (cAMP).
# (§3) At baseline, or during non-ligand bound conditions, these receptors are constitutively active and tonically suppress adenylate cyclase activity. The binding of an agonists causes further receptor activation and produces additional suppression of adenylate cyclase activity. The binding of an inverse agonist inhibits the constitutive activity of the receptors and results in an increase in adenylate cyclase activity.
# (§4) By monitoring intracellular adenylate cyclase activity, the ability of compounds to act as agonists or inverse agonists can be determined.
# (§5) Test compounds were evaluated in SK-N-MC cells which, using standard transfection procedures, were stably transfected with human cDNA for pcDNA3-CRE β-gal and pcDNA3 CB1 receptor (human) or pcDNA3 CB2 receptor (human). By expressing CRE β-gal, the cells produced β-galactosidase in response to CRE promoter activation by cAMP. Cells expressing CRE β-gal and either the human CB1 or CB2 receptor will produce less β-galactosidase when treated with a CB1/CB2 agonist and will produce more β-galactosidase when treated with a CB1/CB2 inverse agonist.
# (§6) The cells were grown in 96-well plates under standard cell culture conditions at 37° C. in a 5% CO2 atmosphere. After 3 days, the media was removed and a test compound in media (wherein the media was supplemented with 2 mM L-glutamine, […] sodium pyruvate, 0.1% low fatty acid FBS (fetal bovine serum) and antibiotics) was added to the cell. The plates were incubated for 30 minutes at 37° C. and the plate cells were then treated with forskolin over a 4-6 hour period, then washed and lysed. The β-galactosidase activity was quantitated using commercially available kit reagents (Promega Corp. Madison, Wis.) and a VMAX Plate Reader (Molecular Devices, Inc).
# (§7) The change in β-galactosidase activity was determined by setting a vehicle treated cell's activity value at 100% and expressing the β-galactosidase activity measured in a corresponding compound treated cell as a percent of the vehicle treated cell activity.
# (§8) The EC50 values for compounds tested were calculated by linear regression and were obtained from studies in which varying compound concentrations were used.
# human CB2 receptor [4] = biological target: T2, human CB2 receptor; assay: Functional cell-based assay, CB2 receptor mediated change in CRE β-gal expression (agonist / inverse agonist); settings: SK-N-MC cells, forskolin
# Source text: as §1, §2, §3, §4, §5, §6
# For cells expressing CRE β-gal and the CB2 receptor, CB2 agonists reduced β-galactosidase activity in a dose-dependent manner and CB2 inverse agonists increased β-galactosidase activity in a dose-dependent manner.
# as §7, §8
# [5] = Cannabinoid CB2 Receptor Binding IC50, human CB2 receptor
# [6] = inverse agonist, read-out: CB2 Receptor Functional Inverse Agonist EC50
# T1 sequence (P21554 whole entry): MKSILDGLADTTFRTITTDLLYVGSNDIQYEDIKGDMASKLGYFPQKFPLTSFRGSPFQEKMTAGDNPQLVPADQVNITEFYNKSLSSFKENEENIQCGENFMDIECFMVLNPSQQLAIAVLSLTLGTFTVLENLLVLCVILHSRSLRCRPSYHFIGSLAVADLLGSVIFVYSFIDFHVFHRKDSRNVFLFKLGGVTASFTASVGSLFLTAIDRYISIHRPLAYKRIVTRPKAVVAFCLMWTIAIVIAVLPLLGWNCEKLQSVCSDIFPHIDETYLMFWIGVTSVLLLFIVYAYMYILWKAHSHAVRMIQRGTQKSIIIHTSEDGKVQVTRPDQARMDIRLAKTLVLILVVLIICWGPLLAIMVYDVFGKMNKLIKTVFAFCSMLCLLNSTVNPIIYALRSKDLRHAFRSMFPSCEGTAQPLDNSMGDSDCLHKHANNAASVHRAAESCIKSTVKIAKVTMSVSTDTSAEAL
SMILES,IC50 (human CB1 receptor [1]),IC50 (human CB2 receptor [2]; [5]),EC50 (human CB1 receptor [3]),EC50 (human CB2 receptor [4]; [6]),"IC50 (human CB1 receptor [1]; human CB1 receptor, SK-N-MC cell membranes, radioligand CP-55,940 0.2 nM, read-out: Cannabinoid CB1 Receptor Binding IC50)","IC50 (human CB2 receptor [2]; human CB2 receptor, read-out: Cannabinoid CB2 Receptor Binding IC50)","EC50 (human CB1 receptor [3]; SK-N-MC cells, CRE β-gal, human CB1 receptor, forskolin, inverse agonist, read-out: CB1 Receptor Functional Inverse Agonist EC50)","EC50 (human CB2 receptor [4]; agonist, read-out: CB2 Receptor Functional Agonist EC50)"
CCOC(=O)C1CCc2c(c(C(=O)NC3C4(C)CCC(C4)C3(C)C)nn2C2CCCCC2)C1 (centres unmarked) [compound 67],300 nM,15.5 nM,524 nM,23 nM,,,,
CCOC(=O)C1CCc2c(c(C(=O)NC(C)c3ccccc3)nn2Cc2ccccc2)C1 (centres unmarked) [compound 256],260 nM,300 nM,250 nM,,,,,
CCOC(=O)C1CCc2c(c(C(=O)NC3C4CC5CC(C4)CC3C5)nn2Cc2ccccc2)C1 (centres unmarked) [compound 226],7.9 nM,5.5 nM,520 nM,65 nM,,,,
CCNC(=O)[C@@H]1C2CCC(C2)[C@@H]1NC(=O)c1nn(Cc2ccccc2)c2c1CCCC2 (some centres unmarked) [compound 167],1660 nM,28 nM,3360 nM,,,,,
CCOC(=O)[C@@H]1CCc2c(c(C(=O)NC3C4(C)CCC(C4)C3(C)C)nn2-c2ccccc2)C1 (some centres unmarked) [compound 220],,230 nM,399 nM,220 nM,,,,
C[C@@H](NC(=O)c1nn(-c2ccc(Cl)cc2Cl)c2c1CCC/C2=C\c1ccc(F)cc1)c1ccccc1 [compound 296],5 nM,,13 nM,,,,,
O=C(NN1CCCCC1)c1nn(-c2ccc(Cl)cc2Cl)c2c1CCC/C2=C\c1ccc(Cl)cc1 [compound 290],25 nM,1000 nM,44 nM,,,,,
CC(NC(=O)c1nn(Cc2ccccc2)c2c1CCCC2c1ccccc1)c1ccccc1 (centres unmarked) [compound 253],25 nM,300 nM,1940 nM,,,,,
CCOC(=O)[C@@H]1CCCC[C@@H]1NC(=O)c1nn(-c2ccc(F)cc2)c2c1CCCC2 [compound 33],58 nM,8 nM,135 nM,,,,,
C[C@H](NC(=O)c1nn(-c2ccc(Cl)cc2Cl)c2c1CCCC2=Cc1ccc(Cl)cc1)C1CCCCC1 [compound 321],230 nM,600 nM,133 nM,,,,,
COc1ccc(-n2nc(C(=O)NC3C4(C)CCC(C4)C3(C)C)c3c2CCCC3)cc1 (centres unmarked) [compound 9],338 nM,11.9 nM,2750 nM,,,,,
CC12CCC(C1)C(C)(C)C2NC(=O)c1nn(-c2ccc(F)cc2)c2c1CCCC2c1ccccc1 (centres unmarked) [compound 144],220 nM,40 nM,176 nM,,,,,
CCOC(=O)C1CCCc2c1c(C(=O)NC1C3(C)CCC(C3)C1(C)C)nn2C1CCCCC1 (centres unmarked) [compound 73],760 nM,295 nM,1740 nM,,,,,
C[C@@H](NC(=O)c1nn(-c2ccc(Cl)cc2Cl)c2c1CCC/C2=C\c1ccc(F)cc1)C1CCCCC1 [compound 295],3 nM,,< 30 nM,,,,,
O=C(NN1CCOCC1)c1nn(-c2ccc(Cl)cc2Cl)c2c1CCC/C2=C\c1ccc(F)cc1 [compound 298],64 nM,,4 nM,,,,,
CCOC(=O)[C@H]1C2CCC(C2)[C@H]1NC(=O)c1nn(-c2ccc(F)cc2)c2c1CCCC2c1ccccc1 (some centres unmarked) [compound 147],2080 nM,1790 nM,152 nM,,,,,

SMILES,IC50 (human CB1 receptor [1]),IC50 (human CB2 receptor [2]; [5]),EC50 (human CB1 receptor [3]),EC50 (human CB2 receptor [4]; [6]),"IC50 (human CB1 receptor [1]; human CB1 receptor, SK-N-MC cell membranes, radioligand CP-55,940 0.2 nM, read-out: Cannabinoid CB1 Receptor Binding IC50)","IC50 (human CB2 receptor [2]; human CB2 receptor, read-out: Cannabinoid CB2 Receptor Binding IC50)","EC50 (human CB1 receptor [3]; SK-N-MC cells, CRE β-gal, human CB1 receptor, forskolin, inverse agonist, read-out: CB1 Receptor Functional Inverse Agonist EC50)","EC50 (human CB2 receptor [4]; agonist, read-out: CB2 Receptor Functional Agonist EC50)"
C[C@@H](NC(=O)c1nn(-c2ccc(Cl)cc2Cl)c2c1CCC/C2=C\c1ccc(Cl)cc1)C1CCCCC1 [compound 293],6 nM,600 nM,25 nM,,,,,
CCOC(=O)C1C2CCC(C2)C1NC(=O)c1nn(Cc2ccccc2)c2c1CCCC2 (centres unmarked) [compound 43],14 nM,1 nM,295 nM,,,,,
"O=C(NN1CCCCC1)c1nn(-c2ccc(Cl)cc2Cl)c2c1CCCC2=Cc1ccc(F)cc1 [Cpd 297, 1-(2,4-dichloro-phenyl)-7-(4-fluoro-benzylidene)-4,5,6,7-tetrahydro-1H-indazole-3-carboxylic acid piperidin-1-ylamide]",13 nM,,5 nM,,,,,
CC12CCC(C1)C(C)(C)C2NC(=O)c1nn(-c2ccc(F)cc2)c2c1CCCC2CCc1ccccc1 (centres unmarked) [compound 151],590 nM,30 nM,801 nM,,,,,
COc1ccc(-n2nc(C(=O)NCCc3ccc(N)cc3)c3c2CCCC3)cc1 [compound 7],,,,,3100 nM,3570 nM,3880 nM,
CC12CCC(C1)C(C)(C)C2NC(=O)Nc1nn(Cc2ccccc2)c2c1CCCC2 (centres unmarked) [compound 338],1350 nM,27 nM,6 nM,,,,,
O=C(NC12CC3CC(CC(C3)C1)C2)c1nn(-c2ccc(F)cc2)c2c1CCCC2c1ccccc1 (centres unmarked) [compound 165],,800 nM,1030 nM,,,,,
C[C@H](NC(=O)/C=C/c1nn(Cc2ccccc2)c2c1CCCC2)c1ccccc1 [compound 305],9800 nM,7200 nM,630 nM,,,,,
C[C@H](NC(=O)c1nn(-c2ccc(Cl)cc2Cl)c2c1CCC/C2=C\c1ccc(Cl)cc1)c1ccccc1 [compound 294],110 nM,700 nM,140 nM,,,,,
CC1(C)[C@@H]2CC[C@@](C)(C2)[C@H]1NC(=O)c1nn(-c2ccc(Cl)cc2Cl)c2c1CCC/C2=C\c1ccc(Cl)cc1 [compound 292],33 nM,60 nM,9 nM,,,,,
CCOC(=O)C1CCc2c(c(C(=O)NC3C4CC5CC(C4)CC3C5)nn2C2CCCCC2)C1 (centres unmarked) [compound 222],280 nM,4.9 nM,194 nM,33 nM,,,,
O=C(NN1CCOCC1)c1nn(-c2ccc(Cl)cc2Cl)c2c1CCC/C2=C\c1ccc(Cl)cc1 [compound 291],180 nM,1700 nM,10 nM,,,,,
CCOC(=O)[C@@H]1CCCC[C@@H]1NC(=O)c1nn(Cc2ccccc2)c2c1CCCC2 (relative stereo) [compound 38],6 nM,3.3 nM,103 nM,,,,,
CCOC(=O)C1C2CCC(C2)C1NC(=O)c1nn(C2CCCCC2)c2c1CCCC2 (centres unmarked) [compound 28],850 nM,7.5 nM,2030 nM,,,,,330 nM
CCOC(=O)C1CCc2c(C(=O)NC3C4(C)CCC(C4)C3(C)C)nn(C3CCCCC3)c2C1 (centres unmarked) [compound 70],125 nM,16 nM,1000 nM,45.9 nM,,,,
CC(NC(=O)c1nn(-c2ccc(Cl)cc2Cl)c2c1CCC/C2=C\c1ccc(Cl)cc1)c1ccccn1 (centres unmarked) [compound 320],14 nM,,1 nM,,,,,
